Experimental data published in patent publication US20250281499A1, “FUSED AMINO PYRIMIDINE COMPOUNDS FOR TREATMENT OF NEUROPATHIC AND NEURO-INFLAMMATORY PAIN” (Ovid Therapeutics Inc., priority 2024, published 2025).

Experiments:
[1] = biological target: T1, NKCC1 (Homo sapiens, UniProt P55011); assay: Tl+ flux assay, HEK-293 cells expressing NKCC1; type: cell-based; details: read-out: concentration at which effects on NKCC1 were seen (EC50, FIG. 1G)
T1 construct: expressed in transfected cells; host or cells: HEK-293
T1 sequence (P55011 1-1212): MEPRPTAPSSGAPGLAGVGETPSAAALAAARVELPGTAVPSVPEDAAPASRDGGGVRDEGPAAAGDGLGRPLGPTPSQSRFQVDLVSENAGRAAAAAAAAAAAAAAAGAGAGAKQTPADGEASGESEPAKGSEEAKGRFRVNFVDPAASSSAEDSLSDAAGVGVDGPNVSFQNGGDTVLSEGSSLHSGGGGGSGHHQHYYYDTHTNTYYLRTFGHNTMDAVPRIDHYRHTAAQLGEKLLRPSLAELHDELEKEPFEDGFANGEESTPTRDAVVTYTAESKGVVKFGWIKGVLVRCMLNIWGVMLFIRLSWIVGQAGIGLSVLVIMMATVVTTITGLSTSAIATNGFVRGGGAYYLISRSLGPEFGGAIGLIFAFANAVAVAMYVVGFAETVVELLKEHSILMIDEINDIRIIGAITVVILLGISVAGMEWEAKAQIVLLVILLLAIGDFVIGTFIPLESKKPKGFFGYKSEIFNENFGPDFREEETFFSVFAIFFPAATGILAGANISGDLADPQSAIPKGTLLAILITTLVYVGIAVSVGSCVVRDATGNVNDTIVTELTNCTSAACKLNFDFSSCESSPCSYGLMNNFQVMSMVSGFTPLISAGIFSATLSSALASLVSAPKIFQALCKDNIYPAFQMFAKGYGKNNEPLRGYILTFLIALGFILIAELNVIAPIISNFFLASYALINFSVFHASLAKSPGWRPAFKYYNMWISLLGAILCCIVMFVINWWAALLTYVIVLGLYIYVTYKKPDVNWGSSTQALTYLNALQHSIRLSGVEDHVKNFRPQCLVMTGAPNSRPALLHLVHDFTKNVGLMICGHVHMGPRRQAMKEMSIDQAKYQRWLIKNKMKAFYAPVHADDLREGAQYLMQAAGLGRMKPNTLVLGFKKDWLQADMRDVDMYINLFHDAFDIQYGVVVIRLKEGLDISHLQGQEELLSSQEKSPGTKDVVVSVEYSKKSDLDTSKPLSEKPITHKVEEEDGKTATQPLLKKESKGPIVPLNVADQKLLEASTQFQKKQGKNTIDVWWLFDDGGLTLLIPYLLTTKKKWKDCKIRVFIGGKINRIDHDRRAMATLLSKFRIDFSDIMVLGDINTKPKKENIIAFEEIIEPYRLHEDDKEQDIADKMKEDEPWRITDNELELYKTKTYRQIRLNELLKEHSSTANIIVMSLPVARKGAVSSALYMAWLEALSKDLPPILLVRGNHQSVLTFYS
Procedure: FLIPR TI Flux assay. HEK-293 cells were washed with HBSS, and then incubated with loading buffer containing TI sensitive fluorescent dye (https://www.moleculardevices.com), 20 μM bumetanide 20 μM ouabain and 2.5 mM probenecid for 1 h at room temperature (RT) under control conditions or with drugs in the dark using a FlexStation 3 microplate reader (Molecular Devices) and imaged […] for 30 min. Stimulus buffer was added containing 5 mM K^+/0.5 mM Tl^+ and cells were imaged every 1.5 over a 190 second time course The initial rate Tl^+ uptake (Relative Fluorescence Units (RFU) per second) was determined following addition of the stimulus buffer as outlined previously (Conway et al., 2017, supra) (Lee et al., 2022, supra).
Several studies have shown that the activity and plasma membrane accumulation of KCC2 is potentiated via phosphorylation of S940, a process mediated by the activity of protein kinase C and protein phosphatase 1 (Lee et al, 2011, supra; Lee et al., J Biol Chem 282, 29777-29784 (2007); Moore et al., Proc. Natl. Acad. Sci. U.S.A 115, 10166-10171 (2018); Moore et al., Trends Neurosci. 40, 555-571 (2017); Silayeva et al., Proc. Natl. Acad. Sci. U.S.A. 112, 3523-3528 (2015)). […] Compared to KCC2, effects on KCC3, KCC4, and NKCC1 were only seen at concentrations more than 35-fold that of KCC2 (>100 μM) (FIG. 1G).

[2] = test system: 18-20 Div hippocampal neurons; assay: Gramicidin perforated patch-clamp, EGABA in hippocampal neurons; type: cell-based, Sprague Dawley; details: 300 nM
Procedure: Neuronal Cultures. Hippocampal neurons were prepared from Sprague Dawley E18 embryos and plated at 450,000 per dish and maintained at 37° C. in a humidified 5% CO2 incubator for 10-25 days before experimentation (Lee et al., Nat. Neurosci. 14, 736-743 (2011)).
At this developmental stage, GABAAR receptor activation leads to hyperpolarization, a phenomenon critically dependent upon KCC2 (Kontou et al., J Biol Chem, 100364 (2021)).
Neuronal Patch clamp assays. Neuronal cell culture recordings were performed in bath saline at 34° C. For gramicidin perforated-patch experiments, pipettes contained (in mM): 140 KCl and 10 HEPES, pH 7.4 KOH. For whole-cell experiments, pipettes contained (in mM): 115 K-meth-SO4, 30 KCl, 2 Mg-ATP, 4 Na-ATP, 0.4 Na-GTP, and 10 HEPES, pH 7.4 KOH. Bath saline contained the following (in mM): 140 NaCl, 2.5 KCl, 2.5 CaCl2, 2.5 MgCl2, 10 HEPES, and 11 glucose, pH 7.4 NaOH (Kontou et al., 2021, supra). All compound solutions were applied to cells using a three-barreled 700 μm pipe positioned just above the cell (Warner Instruments). […] All voltages from whole-cell experiments were corrected offline using a calculated liquid junction potential value (13.6 mV) in Clampex (Molecular Devices). For gramicidin perforated-patch experiments, intracellular Cl^− values were back-calculated using measured EGABA values and the Nernst equation: […]

[3] = test system: hippocampus; assay: Neuronal cell death in the hippocampus, Compound A with diazepam; type: in vivo; details: mice, Compound A and diazepam vs diazepam alone

With C[C@@H]1CN(c2nc3c(c(Nc4ccc(C5CCCCC5)cc4)n2)COC3)CCO1 [Compound A, (R)—N-(4-cyclohexylphenyl)-2-(2-methylmorpholino)-5,7-dihydrofuro[3,4-d]pyrimidin-4-amine] the EC50 [1] was greater than 100 µM, the “reduction in Cl−” value ([2]; 15 min, calculated from EGABA) was 2.2 ± 0.6 mM and the “EGABA at 15 min” value ([2]; from −75±3.1 at 0 min, bumetanide and TTX present) was −85.1±4.2 mV. For the same molecule, the “neuronal cell death in the hippocampus” value [3] was “significantly reduced”.
